For assay [1], the target named is FLT3 kinase (Homo sapiens (Human), UniProt P36888). In words: Competition binding assay (Kd), FLT3. The following applies: competition binding assay.
The target in assay [2] is KIT kinase (Homo sapiens (Human), UniProt P10721). In words: Competition binding assay (Kd), KIT. The following applies: competition binding assay. The gist of the method:
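Kinase, as T7 phage fusion or HEK-293-expressed DNA-tagged protein, competed off immobilised ligand beads by test compound (eleven-point threefold dilutions, from 100× DMSO stocks). Eluted kinase quantified by qPCR to derive Kd; DMSO used as control.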

Assay [3] deals with FLT3-ITD (Homo sapiens (Human), UniProt P36888, INS600HVDFREYEYD). Description: pFLT3 MSD assay, Ba/F3 FLT3-ITD. It counts as cell-based. The following applies: Ba/F3 FLT3-ITD cells, 2 hours, read-out: BaF3-FLT3-ITD pFlt3 IC50.
Procedure: In certain other embodiments, the compounds disclosed herein are tested in a FLT3 phosphorylation assay to determine their cellular potency against one or both of FLT3-ITD and FLT3 tyrosine kinase domain mutants. In certain embodiments, the FLT3 phosphorylation assay assesses the potency of compounds as FLT3 inhibitors by measuring the reduction in formation of phosphorylated FLT3 in the cells.
Gene constructs containing the human FLT3 sequences FLT3-ITD, FLT3-ITD-F691L, FLT3-ITD-D835V and FLT3-D835V were synthesized by reverse translation of the human protein sequences, with codons optimized for mammalian expression. Sequence of the internal tandem duplication (ITD) was based on the MV4-11 ITD sequence. […] Viruses were transduced into the IL-3-dependent, murine macrophage cell line, Ba/F3, and selected for puromycin resistance and IL-3 independence. All cell lines were cloned by limiting dilution and clones were used for all subsequent cell assays.
Briefly, cell lines were serum starved overnight in media containing 0.5% FBS. Cells were plated at 200,000 cells/well in 96-well round bottom plates in low serum, and 3-fold serial dilutions of test compounds were added for 2 hours at 37° C. […] After an overnight incubation at 4° C. shaking at 450 rpm, plates were washed with MSD wash buffer, and captured FLT3 was detected with biotinylated-anti-phosphotyrosine antibody 4G10 (Millipore) and SulfoTAG-streptavidin (MSD) for 1 hour at room temperature, and read on an MSD SECTOR Imager 6000. Percent remaining phospho-FLT3 in compound-treated cells was normalized to DMSO-treated cells, and IC50s were determined using Igor Pro software. All compounds are assayed in duplicate cell and MSD plates.

Here are results for 25 compounds from US9725465B2, “Biaryl acetamide compounds and methods of use thereof” (Ambit Biosciences Corporation, priority 2013, dated 2017).

Bounds are passed on as bounds.

Chain of FLT3-ITD (P36888 other isoform, or with tags, fused parts or gaps limits assumed, stated change not applied): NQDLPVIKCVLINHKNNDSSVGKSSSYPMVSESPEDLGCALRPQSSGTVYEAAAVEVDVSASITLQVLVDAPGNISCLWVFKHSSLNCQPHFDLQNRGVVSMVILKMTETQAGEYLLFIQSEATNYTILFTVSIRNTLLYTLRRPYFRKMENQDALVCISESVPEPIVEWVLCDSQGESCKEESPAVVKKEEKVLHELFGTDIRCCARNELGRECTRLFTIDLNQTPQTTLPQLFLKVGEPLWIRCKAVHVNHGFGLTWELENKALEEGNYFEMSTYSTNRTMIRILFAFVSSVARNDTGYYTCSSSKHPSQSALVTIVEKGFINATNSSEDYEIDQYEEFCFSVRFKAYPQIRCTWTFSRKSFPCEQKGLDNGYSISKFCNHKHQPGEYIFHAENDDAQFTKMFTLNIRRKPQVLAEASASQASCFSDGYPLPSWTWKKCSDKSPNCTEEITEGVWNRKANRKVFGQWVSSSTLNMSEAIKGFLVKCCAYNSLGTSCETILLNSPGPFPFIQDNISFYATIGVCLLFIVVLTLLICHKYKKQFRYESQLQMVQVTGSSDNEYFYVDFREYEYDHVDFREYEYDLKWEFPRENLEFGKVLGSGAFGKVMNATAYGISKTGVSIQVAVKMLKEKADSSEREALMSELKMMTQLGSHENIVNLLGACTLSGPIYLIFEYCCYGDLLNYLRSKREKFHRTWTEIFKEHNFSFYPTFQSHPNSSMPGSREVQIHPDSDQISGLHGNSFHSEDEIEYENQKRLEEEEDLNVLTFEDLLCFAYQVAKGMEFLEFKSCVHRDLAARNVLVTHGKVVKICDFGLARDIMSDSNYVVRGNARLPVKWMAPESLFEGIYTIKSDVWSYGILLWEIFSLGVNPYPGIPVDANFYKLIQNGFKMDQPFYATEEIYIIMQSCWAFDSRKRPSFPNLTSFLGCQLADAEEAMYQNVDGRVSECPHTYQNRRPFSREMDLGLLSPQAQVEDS
Chain of KIT kinase (P10721 26-976): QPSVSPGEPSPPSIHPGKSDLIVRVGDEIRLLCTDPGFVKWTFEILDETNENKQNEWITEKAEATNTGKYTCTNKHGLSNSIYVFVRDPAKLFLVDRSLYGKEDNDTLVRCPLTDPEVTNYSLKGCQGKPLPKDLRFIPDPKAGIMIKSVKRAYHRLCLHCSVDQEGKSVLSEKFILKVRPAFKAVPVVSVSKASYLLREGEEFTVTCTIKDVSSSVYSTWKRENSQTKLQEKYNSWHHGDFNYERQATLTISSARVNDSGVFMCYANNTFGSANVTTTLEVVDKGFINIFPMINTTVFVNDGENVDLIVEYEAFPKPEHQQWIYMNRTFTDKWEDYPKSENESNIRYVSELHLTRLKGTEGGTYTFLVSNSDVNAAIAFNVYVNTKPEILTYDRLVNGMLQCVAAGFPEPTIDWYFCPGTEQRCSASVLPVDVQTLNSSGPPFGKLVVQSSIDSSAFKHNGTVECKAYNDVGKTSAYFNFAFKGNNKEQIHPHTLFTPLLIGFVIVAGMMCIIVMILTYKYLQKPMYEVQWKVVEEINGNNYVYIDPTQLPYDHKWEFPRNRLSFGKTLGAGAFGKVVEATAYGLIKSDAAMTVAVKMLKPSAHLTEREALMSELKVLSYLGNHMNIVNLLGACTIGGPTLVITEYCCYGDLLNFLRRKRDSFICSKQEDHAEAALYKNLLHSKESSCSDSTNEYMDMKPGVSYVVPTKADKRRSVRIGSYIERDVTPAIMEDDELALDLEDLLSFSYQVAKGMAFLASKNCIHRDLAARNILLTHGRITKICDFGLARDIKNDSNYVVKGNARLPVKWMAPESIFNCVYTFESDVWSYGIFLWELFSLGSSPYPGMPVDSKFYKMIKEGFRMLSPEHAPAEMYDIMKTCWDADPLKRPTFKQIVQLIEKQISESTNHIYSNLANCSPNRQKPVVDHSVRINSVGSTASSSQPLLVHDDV
Chain of FLT3 kinase (P36888 27-993): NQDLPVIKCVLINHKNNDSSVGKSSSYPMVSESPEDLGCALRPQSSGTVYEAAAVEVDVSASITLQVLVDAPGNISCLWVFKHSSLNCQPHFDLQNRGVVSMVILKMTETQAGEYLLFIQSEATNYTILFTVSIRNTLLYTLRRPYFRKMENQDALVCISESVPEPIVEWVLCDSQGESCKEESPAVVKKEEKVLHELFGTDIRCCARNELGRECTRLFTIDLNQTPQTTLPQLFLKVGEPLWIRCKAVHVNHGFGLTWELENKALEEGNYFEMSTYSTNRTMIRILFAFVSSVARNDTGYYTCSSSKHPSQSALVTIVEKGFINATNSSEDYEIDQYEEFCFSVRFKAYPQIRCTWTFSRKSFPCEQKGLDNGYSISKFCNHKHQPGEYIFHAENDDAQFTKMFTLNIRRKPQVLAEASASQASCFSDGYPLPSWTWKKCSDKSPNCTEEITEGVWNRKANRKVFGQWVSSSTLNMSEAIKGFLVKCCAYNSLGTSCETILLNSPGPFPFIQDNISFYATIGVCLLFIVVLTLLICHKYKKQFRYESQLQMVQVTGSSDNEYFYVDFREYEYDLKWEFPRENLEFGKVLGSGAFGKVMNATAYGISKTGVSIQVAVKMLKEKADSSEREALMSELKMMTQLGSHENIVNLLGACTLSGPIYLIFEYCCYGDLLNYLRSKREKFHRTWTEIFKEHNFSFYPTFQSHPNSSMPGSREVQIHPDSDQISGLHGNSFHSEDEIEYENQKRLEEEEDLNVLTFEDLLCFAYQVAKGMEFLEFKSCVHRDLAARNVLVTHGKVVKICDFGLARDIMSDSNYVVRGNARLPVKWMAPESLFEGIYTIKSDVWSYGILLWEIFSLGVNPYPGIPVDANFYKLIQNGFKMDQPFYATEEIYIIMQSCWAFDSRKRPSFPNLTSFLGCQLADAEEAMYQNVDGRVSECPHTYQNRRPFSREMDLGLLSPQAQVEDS

For `COc1ccc2cc(-c3ccc(CC(=O)Nc4cc(C5(C(F)(F)F)CC5)on4)cc3)cnc2c1` [Example 2, 2-(4-(7-methoxyquinolin-3-yl)phenyl)-N-(5-(1-(trifluoromethyl)cyclopropyl)isoxazol-3-yl)acetamide], the Kd in assay [1] and in assay [2] was less than 5 nM each time. The IC50 (in general, the concentration at which inhibition is half-maximal) in assay [3] is less than 10 nM.
Regarding `O=C(Cc1ccc(-c2cnc3[nH]ccc3n2)cc1)Nc1cc(C2(C(F)(F)F)CC2)on1` [Example 3, 2-(4-(5H-pyrrolo[2,3-b]pyrazin-2-yl)phenyl)-N-(5-(1-(trifluoromethyl)cyclopropyl)isoxazol-3-yl)acetamide], the Kd in assay [1] and in assay [2] was less than 5 nM each time. Besides, the IC50 in assay [3] is less than 10 nM.
In the case of `COc1cc2ncc(-c3ccc(CC(=O)Nc4cc(C5(C(F)(F)F)CC5)on4)c(F)c3)nc2cc1OC` [Example 4, 2-(4-(6,7-dimethoxyquinoxalin-2-yl)-2-fluorophenyl)-N-(5-(1-(trifluoromethyl)cyclopropyl)isoxazol-3-yl)acetamide], the Kd in assay [1] and in assay [2] was less than 5 nM in each case. The IC50 in assay [3] is less than 10 nM.
On to `COc1cc2cc(-c3ccc(CC(=O)Nc4cc(C5(C(F)(F)F)CC5)on4)cc3)cnc2cc1OC` [Example 5, 2-(4-(6,7-dimethoxyquinolin-3-yl)phenyl)-N-(5-(1-(trifluoromethyl)cyclopropyl)isoxazol-3-yl)acetamide], for which the dissociation constant Kd in assay [1] and in assay [2] was less than 5 nM throughout. For the same compound, the IC50 in assay [3] is less than 10 nM.
Regarding `COc1cc2ncc(-c3ccc(CC(=O)Nc4cc(C(C)(C)C)on4)cc3)nc2cc1OC` [Example 6, N-(5-(tert-butyl)isoxazol-3-yl)-2-(4-(6,7-dimethoxyquinoxalin-2-yl)phenyl)acetamide], the Kd in assay [1] and in assay [2] was less than 5 nM throughout. The IC50 in assay [3] is less than 10 nM.
In the case of `COc1cc2ncc(-c3ccc(CC(=O)Nc4cc(C(C)(C)C(F)(F)F)on4)cc3)nc2cc1OC` [Example 8, 2-(4-(6,7-dimethoxyquinoxalin-2-yl)phenyl)-N-(5-(1,1,1-trifluoro-2-methylpropan-2-yl)isoxazol-3-yl)acetamide], the Kd in assay [1] and in assay [2] was less than 5 nM in each case. The IC50 in assay [3] was less than 10 nM.
For `O=C(Cc1ccc(-c2cnc3[nH]ncc3c2)cc1)Nc1cc(C2(C(F)(F)F)CC2)on1` [Example 15, 2-(4-(1H-pyrazolo[3,4-b]pyridin-5-yl)phenyl)-N-(5-(1-(trifluoromethyl)cyclopropyl)isoxazol-3-yl)acetamide], in assay [2], the Kd (in general, a measure of binding affinity in units of concentration) is less than 5 nM. Also, the IC50 in assay [3] was less than 10 nM.
In assay [2], `O=C(Cc1ccc(-c2cnc3[nH]ccc3c2)cc1)Nc1cc(C2(C(F)(F)F)CC2)on1` [Example 18, 2-(4-(1H-pyrrolo[2,3-b]pyridin-5-yl)phenyl)-N-(5-(1-(trifluoromethyl)cyclopropyl)isoxazol-3-yl)acetamide] registered a Kd of less than 5 nM. The IC50 in assay [3] is less than 10 nM.
With `COc1cc2ncc(-c3ccc(CC(=O)Nc4cc(C(C)(C)C(F)(F)F)on4)c(F)c3)nc2cc1OC` [Example 46, 2-(4-(6,7-dimethoxyquinoxalin-2-yl)-2-fluorophenyl)-N-(5-(1,1,1-trifluoro-2-methylpropan-2-yl)isoxazol-3-yl)acetamide], the Kd in assay [1] was less than 5 nM; in assay [2], 5 to 20 nM. Further, the IC50 in assay [3] was less than 10 nM.
Regarding `CN(C)c1n[nH]c2ncc(-c3ccc(CC(=O)Nc4cc(C5(C(F)(F)F)CC5)on4)c(F)c3)cc12` [Example 61, 2-(4-(3-(dimethylamino)-1H-pyrazolo[3,4-b]pyridin-5-yl)-2-fluorophenyl)-N-(5-(1-(trifluoromethyl)cyclopropyl)isoxazol-3-yl)acetamide], the IC50 in assay [3] was less than 10 nM.
Take `CC(O)c1n[nH]c2ncc(-c3ccc(CC(=O)Nc4cc(C(C)(C)C)on4)c(F)c3)cc12` (stereo not shown) [Example 62, N-(5-(tert-butyl)isoxazol-3-yl)-2-(2-fluoro-4-(3-(1-hydroxyethyl)-1H-pyrazolo[3,4-b]pyridin-5-yl)phenyl)acetamide]: the Kd in assay [1] and in assay [2] was less than 5 nM in each case. For the same compound, the half-inhibitory concentration (IC50) in assay [3] was less than 10 nM.
Regarding `COc1n[nH]c2ncc(-c3ccc(CC(=O)Nc4cc(C(C)(C)C(F)(F)F)on4)c(F)c3)cc12` [Example 63, 2-(2-fluoro-4-(3-methoxy-1H-pyrazolo[3,4-b]pyridin-5-yl)phenyl)-N-(5-(1,1,1-trifluoro-2-methylpropan-2-yl)isoxazol-3-yl)acetamide], the Kd in assay [1] and in assay [2] was less than 5 nM throughout. Further, in assay [3], the IC50 is less than 10 nM.
Take `CC(C)(C)c1cc(NC(=O)Cc2ccc(-c3cnc4[nH]c(C(=O)NCCO)cc4c3)cc2)no1` [Example 64, 5-(4-(2-((5-(tert-butyl)isoxazol-3-yl)amino)-2-oxoethyl)phenyl)-N-(2-hydroxyethyl)-1H-pyrrolo[2,3-b]pyridine-2-carboxamide]: the Kd in assay [1] and in assay [2] was less than 5 nM each time. Also, the IC50 in assay [3] was less than 10 nM.
Take `CNC(=O)c1cc2cc(-c3ccc(CC(=O)Nc4cc(C(C)(C)C)on4)cc3)cnc2[nH]1` [Example 65, 5-(4-(2-((5-(tert-butyl)isoxazol-3-yl)amino)-2-oxoethyl)phenyl)-N-methyl-1H-pyrrolo[2,3-b]pyridine-2-carboxamide]: the Kd in assay [1] and in assay [2] was less than 5 nM throughout. For the same compound, in assay [3], the IC50 is less than 10 nM.
Turning to `CN(C)CCNC(=O)c1cc2cc(-c3ccc(CC(=O)Nc4cc(C(C)(C)C)on4)cc3)cnc2[nH]1` [Example 66, 5-(4-(2-((5-(tert-butyl)isoxazol-3-yl)amino)-2-oxoethyl)phenyl)-N-(2-(dimethylamino)ethyl)-1H-pyrrolo[2,3-b]pyridine-2-carboxamide], the Kd in assay [1] and in assay [2] was less than 5 nM each time. The IC50 in assay [3] was less than 10 nM.
For `CN(C)CCCN(C)C(=O)c1cc2cc(-c3ccc(CC(=O)Nc4cc(C(C)(C)C)on4)cc3)cnc2[nH]1` [Example 67, 5-(4-(2-((5-(tert-butyl)isoxazol-3-yl)amino)-2-oxoethyl)phenyl)-N-(3-(dimethylamino)propyl)-N-methyl-1H-pyrrolo[2,3-b]pyridine-2-carboxamide], the Kd in assay [1] and in assay [2] was less than 5 nM each time. In assay [3], the IC50 was less than 10 nM.
Consider `CC(C)(C)c1cc(NC(=O)Cc2ccc(-c3cnc4[nH]c(C(=O)NCCS(C)(=O)=O)cc4c3)cc2)no1` [Example 68, 5-(4-(2-((5-(tert-butyl)isoxazol-3-yl)amino)-2-oxoethyl)phenyl)-N-(2-(methylsulfonyl)ethyl)-1H-pyrrolo[2,3-b]pyridine-2-carboxamide], for which the Kd in assay [1] and in assay [2] was less than 5 nM each time. In addition, the IC50 in assay [3] is less than 10 nM.
`CN1CCC(NC(=O)c2cc3cc(-c4ccc(CC(=O)Nc5cc(C(C)(C)C)on5)cc4)cnc3[nH]2)CC1` [Example 69, 5-(4-(2-((5-(tert-butyl)isoxazol-3-yl)amino)-2-oxoethyl)phenyl)-N-(1-methylpiperidin-4-yl)-1H-pyrrolo[2,3-b]pyridine-2-carboxamide]: the Kd in assay [1] and in assay [2] was less than 5 nM in each case. In addition, the IC50 in assay [3] was less than 10 nM.
For the compound `O=C(Cc1ccc(-c2cnc3[nH]c(CO)cc3c2)cc1F)Nc1cc(C2(C(F)(F)F)CC2)on1` [Example 70, 2-(2-fluoro-4-(2-(hydroxymethyl)-1H-pyrrolo[2,3-b]pyridin-5-yl)phenyl)-N-(5-(1-(trifluoromethyl)cyclopropyl)isoxazol-3-yl)acetamide], the equilibrium dissociation constant (Kd) in assay [1] and in assay [2] was less than 5 nM throughout. Further, the IC50 in assay [3] was less than 10 nM.
In the case of `CC(C)(C)c1cc(NC(=O)Cc2ccc(-c3cnc4[nH]ccc4c3)cc2)on1` [Example 71, 2-(4-(1H-pyrrolo[2,3-b]pyridin-5-yl)phenyl)-N-(3-(tert-butyl)isoxazol-5-yl)acetamide], the IC50 in assay [3] was less than 10 nM.
With `COc1cc2ncc(-c3ccc(CC(=O)Nc4cc(C5(C(F)(F)F)CC5)no4)cc3)nc2cc1OC` [Example 72, 2-(4-(6,7-dimethoxyquinoxalin-2-yl)phenyl)-N-(3-(1-(trifluoromethyl)cyclopropyl)isoxazol-5-yl)acetamide], in assay [3], the IC50 is less than 10 nM.
`COc1cc2ncc(-c3ccc(CC(=O)Nc4cc(C(C)(C)C)no4)cc3)nc2cc1OC` [Example 73, N-(3-(tert-butyl)isoxazol-5-yl)-2-(4-(6,7-dimethoxyquinoxalin-2-yl)phenyl)acetamide]: the IC50 in assay [3] is less than 10 nM.
In the case of `CC(=O)OCCOc1cc2ncc(-c3ccc(CC(=O)Nc4cc(C5(C(F)(F)F)CC5)on4)c(F)c3)nc2cc1OCCOC(C)=O` [Example 74, ((2-(3-fluoro-4-(2-oxo-2-((5-(1-(trifluoromethyl)cyclopropyl)isoxazol-3-yl)amino)ethyl)phenyl)quinoxaline-6,7-diyl)bis(oxy))bis(ethane-2,1-diyl) diacetate], the Kd in assay [1] was less than 5 nM; in assay [2], 5 to 20 nM. Further, the IC50 in assay [3] is less than 10 nM.
As to `O=C(Cc1ccc(-c2cnc3cc(OCCO)c(OCCO)cc3n2)cc1F)Nc1cc(C2(C(F)(F)F)CC2)on1` [Example 75, 2-(4-(6,7-bis(2-hydroxyethoxy)quinoxalin-2-yl)-2-fluorophenyl)-N-(5-(1-(trifluoromethyl)cyclopropyl)isoxazol-3-yl)acetamide], the Kd in assay [1] and in assay [2] was less than 5 nM each time. Moreover, the IC50 in assay [3] was less than 10 nM.
On to `COc1cc2nc(-c3ccc(CC(=O)Nc4cc(C5(C(F)(F)F)CC5)on4)c(F)c3)cnc2cc1OC1CNC1` [Example 89, 2-(4-(6-(azetidin-3-yloxy)-7-methoxyquinoxalin-2-yl)-2-fluorophenyl)-N-(5-(1-(trifluoromethyl)cyclopropyl)isoxazol-3-yl)acetamide], for which the Kd in assay [2] lay within 5 to 20 nM. For the same compound, in assay [3], the IC50 is less than 10 nM.
